Data on three molecules can be found in patent publication US20030180294A1, “Methods of extending corneal graft survival” (priority 2002, published 2003).

Assay [1] concerns corneal transplants in the Lewis/Wistar-Furth combination. Briefly: rat model of keratoplasty, corneal graft survival. Type of assay: in vivo. The conditions noted are these: Lewis cornea to Wistar-Furth recipient, systemic 0.5 to 200 mg/kg/day or eye drop 0.05% to 5.0%, versus vehicle (rejection on average at day 30). The protocol:
Grafts are prepared and transferred according to the well-characterized rat model of keratoplasty with transplantation of corneas from Lewis strain rats to Wistar-Furth recipients (Callanan et al., Transplantation 45:437-443 (1988)). Each treatment group administered vehicle or test agent includes nine to fourteen rats. Grafts are observed clinically and scored three times per week for signs of rejection according to the criteria in Callanan et al., supra, 1988. Day 60 following surgery represents a two-fold prolongation in the expected mean survival time for corneal transplants in the Lewis/Wistar-Furth combination and therefore is selected as an advantageous time for terminating treatment. Rats bearing grafts not rejected by day 60 are observed for an additional 14 days to determine if the host's immune system has been tolerized. At this time, 80% of the grafted eyes are snap frozen for cryostat sectioning, and the remaining 20% of the eyes are fixed in formalin for H & E staining.
The VEGFR-3 tyrosine kinase inhibitor MAE87, MAE106 or MAZ51 is administered systemically at various concentrations, ranging from 0.5 to 200 mg/kg/day. In other animals, the compound is administered as an eye drop solution in various concentrations ranging from 0.05% to 5.0% and administered as various frequencies (once per day, two times per day and three times per day).

Assay [2] deals with VEGFR-3 (Homo sapiens, UniProt P35916). The settings on record: VEGF-C and VEGF-D induced; cited from earlier work.
VEGFR-3, sequence (P35916 25-1363, species assumed): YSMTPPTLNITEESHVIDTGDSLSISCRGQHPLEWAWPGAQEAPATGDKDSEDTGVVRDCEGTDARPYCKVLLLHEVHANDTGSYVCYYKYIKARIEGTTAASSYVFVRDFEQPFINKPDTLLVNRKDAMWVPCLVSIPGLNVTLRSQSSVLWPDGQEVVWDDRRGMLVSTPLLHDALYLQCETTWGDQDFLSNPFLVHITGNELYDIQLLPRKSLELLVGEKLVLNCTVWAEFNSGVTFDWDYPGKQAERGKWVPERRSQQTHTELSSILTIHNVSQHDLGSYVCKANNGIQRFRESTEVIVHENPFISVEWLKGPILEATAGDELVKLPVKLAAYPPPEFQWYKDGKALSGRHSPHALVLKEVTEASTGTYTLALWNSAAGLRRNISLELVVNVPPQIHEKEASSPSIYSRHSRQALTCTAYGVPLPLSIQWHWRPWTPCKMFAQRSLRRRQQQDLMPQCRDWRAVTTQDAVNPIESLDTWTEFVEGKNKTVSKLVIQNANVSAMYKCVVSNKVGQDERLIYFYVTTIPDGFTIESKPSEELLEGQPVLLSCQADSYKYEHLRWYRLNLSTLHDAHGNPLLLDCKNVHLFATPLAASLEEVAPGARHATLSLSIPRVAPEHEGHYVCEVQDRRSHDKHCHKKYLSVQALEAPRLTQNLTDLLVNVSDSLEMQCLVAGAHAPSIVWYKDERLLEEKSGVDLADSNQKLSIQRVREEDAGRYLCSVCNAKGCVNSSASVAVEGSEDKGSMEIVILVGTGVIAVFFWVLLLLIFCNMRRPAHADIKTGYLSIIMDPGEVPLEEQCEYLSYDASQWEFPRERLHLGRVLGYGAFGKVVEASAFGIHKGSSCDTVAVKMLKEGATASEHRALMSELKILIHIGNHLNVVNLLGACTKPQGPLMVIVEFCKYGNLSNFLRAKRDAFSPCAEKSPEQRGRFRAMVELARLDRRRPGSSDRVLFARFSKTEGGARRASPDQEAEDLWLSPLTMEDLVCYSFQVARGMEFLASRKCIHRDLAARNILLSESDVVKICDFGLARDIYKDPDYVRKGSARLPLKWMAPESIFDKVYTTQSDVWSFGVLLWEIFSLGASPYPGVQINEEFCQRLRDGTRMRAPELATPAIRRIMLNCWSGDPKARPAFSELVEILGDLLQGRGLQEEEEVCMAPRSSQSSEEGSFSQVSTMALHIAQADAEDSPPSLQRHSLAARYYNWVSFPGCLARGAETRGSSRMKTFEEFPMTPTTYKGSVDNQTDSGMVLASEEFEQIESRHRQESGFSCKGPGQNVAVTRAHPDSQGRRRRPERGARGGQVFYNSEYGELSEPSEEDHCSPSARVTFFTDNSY

Regarding `O=C1Nc2ccccc2C1=Cc1ccc(O)cc1O` [MAE87, 3(2,4-dihydroxy-benzylidene)-1,3-dihydro-indol-2-one], the “mean graft survival (delay in evidence of graft rejection)” value (“mean graft survival” for short) in assay [1] is “increased mean graft survival”. Consider `CN(C)c1ccc(C=C2C(=O)Nc3ccccc32)c2ccccc12` [MAZ51, 3-(4-dimethylamino-naphthalen-1-ylmethylene)-1,3-dihydro-indol-2-one], for which the “VEGFR-3 kinase activity versus VEGFR-2 (specificity)” value in assay [2] was “differentially block VEGF-C and VEGF-D induced VEGFR-3 kinase activity compared to that of VEGFR-2”. Besides, in assay [1], the “mean graft survival” value is recorded as “increased mean graft survival”. As for `COc1ccc(C=C2C(=O)Nc3ccccc32)cc1F` [MAE106, 3-(3-fluoro-4-methoxy-benzylidene)-1,3-dihydro-indol-2-one], the “VEGFR-3 kinase activity versus VEGFR-2 (specificity)” value in assay [2] is “differentially block VEGF-C and VEGF-D induced VEGFR-3 kinase activity compared to that of VEGFR-2”. Moreover, the “mean graft survival” value in assay [1] is reported as “increased mean graft survival”.
